# Measured values: US9840467B2, “Arylhydrazides containing a 2-pyridone moiety as selective antibacterial agents” (ABAC THERAPEUTICS, S.L., priority 2014, dated 2017)
# Where two headings read alike, the source gives them in different places.
# Experiments:
# [1] = system: A. baumannii; experiment: MIC, CLSI microtiter dilution, A. baumannii; assay type: cell-based, Acinetobacter baumannii; details: Acinetobacter baumannii
# Protocol: (§1) The products of the present invention were tested for their activity against A. baumannii as well as against the following bacteria: Staphylococcus aureus (S. aureus), Streptococcus pneumoniae (S. pneumoniae), Enterococcus faecium (E. faecium), Pseudomonas aeruginosa (P. aeruginosa), Klebsiella pneumoniae (K. pneumoniae.), Enterobacter aerogenes (E. aerogenes) and Escherichia coli (E. coli).
# (§2) Minimal inhibitory concentrations (MICs) were determined using a standard microtiter dilution method, according to the Clinical and Laboratory Standards Institute (CLSI) procedures, in particular according to M07-A9: “Methods for Dilution Antimicrobial Susceptibility Tests for Bacteria That Grow Aerobically; Approved Standard—Ninth Edition”.
# (§3) Briefly, compounds were dissolved with dimethyl sulfoxide (DMSO) at 12.8 mg/mL. Serial two-fold dilutions of compounds were performed in DMSO and 1 μl of each dilution were transferred into microtiter culture plates, followed by 100 μl of inoculated culture media to give a final microorganism concentration of 5×10^5 colony-forming units/mL. Plates were incubated at 37° C. for 24 hours and MICs determined as the lowest compound concentration that inhibited growth. Media used in determinations were Cation adjusted Mueller-Hinton Broth for all the microorganisms except for S. pneumoniae and E. faecium whose culture media were supplemented with 2.5% of lysed horse blood. Incubations were performed at air atmosphere except S. pneumoniae cultures that were incubated with 5% CO2 atmosphere.
# [2] = system: S. aureus; experiment: MIC, CLSI microtiter dilution, S. aureus; assay type: cell-based, Staphylococcus aureus; details: Staphylococcus aureus
# Protocol: as §1, §2, §3
# [3] = system: S. pneumoniae; experiment: MIC, CLSI microtiter dilution, S. pneumoniae; assay type: cell-based, Streptococcus pneumoniae; details: Streptococcus pneumoniae
# Protocol: as §1, §2, §3
# [4] = system: E. faecium; experiment: MIC, CLSI microtiter dilution, E. faecium; assay type: cell-based, Enterococcus faecium; details: Enterococcus faecium
# Protocol: as §1, §2, §3
# [5] = system: P. aeruginosa; experiment: MIC, CLSI microtiter dilution, P. aeruginosa; assay type: cell-based, Pseudomonas aeruginosa; details: Pseudomonas aeruginosa
# Protocol: as §1, §2, §3
# [6] = system: K. pneumoniae; experiment: MIC, CLSI microtiter dilution, K. pneumoniae; assay type: cell-based, Klebsiella pneumoniae; details: Klebsiella pneumoniae
# Protocol: as §1, §2, §3
# [7] = system: E. aerogenes; experiment: MIC, CLSI microtiter dilution, E. aerogenes; assay type: cell-based, Enterobacter aerogenes; details: Klebsiella aerogenes
# Protocol: as §1, §2, §3
# [8] = system: E. coli; experiment: MIC, CLSI microtiter dilution, E. coli; assay type: cell-based, Escherichia coli; details: Escherichia coli
# Protocol: as §1, §2, §3
"MIC ([1]; A. baumannii, 37° C., 24 hours, Cation adjusted Mueller-Hinton Broth, read-out: MIC) [µg/mL]","MIC ([2]; S. aureus, 37° C., 24 hours, Cation adjusted Mueller-Hinton Broth, read-out: MIC) [µg/mL]","MIC ([3]; S. pneumoniae, 37° C., 24 hours, 2.5% lysed horse blood, 5% CO2, read-out: MIC) [µg/mL]","MIC ([4]; E. faecium, 37° C., 24 hours, 2.5% lysed horse blood, read-out: MIC) [µg/mL]","MIC ([5]; P. aeruginosa, 37° C., 24 hours, Cation adjusted Mueller-Hinton Broth, read-out: MIC) [µg/mL]","MIC ([6]; K. pneumoniae, 37° C., 24 hours, Cation adjusted Mueller-Hinton Broth, read-out: MIC) [µg/mL]","MIC ([7]; E. aerogenes, 37° C., 24 hours, Cation adjusted Mueller-Hinton Broth, read-out: MIC) [µg/mL]","MIC ([8]; E. coli, 37° C., 24 hours, Cation adjusted Mueller-Hinton Broth, read-out: MIC) [µg/mL]",SMILES,MIC ([1]; 24 h) [µg/mL],MIC ([2]; 24 h) [µg/mL],MIC ([3]; 24 h) [µg/mL],MIC ([4]; 24 h) [µg/mL],MIC ([5]; 24 h) [µg/mL],MIC ([6]; 24 h) [µg/mL],MIC ([7]; 24 h) [µg/mL],MIC ([8]; 24 h) [µg/mL]
0.25,> 128,> 128,> 128,> 128,> 128,> 128,> 128,"Cn1ccc(C(=O)NNc2ccc(F)cc2)cc1=O [Ex. 18, 1-Methyl-2-oxo-1,2-dihydropyridine-4-carboxylic acid N′-(4-fluorophenyl)-hydrazide]",,,,,,,,
,,,,,,,,"COc1ccc(NNC(=O)c2cccc(=O)n2C)cc1 [Ex. 9, 1-Methyl-6-oxo-1,6-dihydropyridine-2-carboxylic acid N′-(4-methoxyphenyl)-hydrazide]",0.25,> 128,> 128,> 128,> 128,> 128,> 128,> 128
,,,,,,,,"CN(NC(=O)c1cccc(=O)n1C)c1ccc(F)cc1 [Ex. 20, 1-Methyl-6-oxo-1,6-dihydropyridine-2-carboxylic acid N′-(4-fluorophenyl)-N′-methyl-hydrazide]",64,> 128,> 128,> 128,> 128,> 128,> 128,> 128
